# How the values were obtained:
# [1] = dissolution of the sample in water for the α-glucosidase assay; type: physicochemical; set-up: key: −: Did not dissolve in water; conditions: samples prepared in H2O
# Procedure: (§1) The α-glucosidase inhibitory activity of all samples was assayed utilizing a commercially available FUJIFILM α-glucosidase inhibitory activity assay kit. In total, 25 μL of each sample (25–2000 μg/mL in H2O ) or acarbose (0.5–8 μg/mL in H2O ), 50 μL of 18.5 mM maltose diluted in maleic anhydride buffer (100 mM, pH = 6.0), and 25 μL of the rat α-glucosidase solution were incubated in a micro-tube at 37 °C for 30 min. Subsequently, 400 μL of purified water was added to the solution and the reaction mixture was boiled for 3 min to deactivate α-glucosidase. The generated glucose was measured by LabAssay™ glucose (mutarotase-GOD method). In total, 100 μL of the reaction solution and 150 μL of the coloring solution were incubated in 96-well plates at 37 °C for 10 min, and the absorbance was recorded at 505 nm using a microplate reader (Bio-Rad, Model 680). The inhibition percentage was calculated using the following Equation: Inhibition percentage (%) = 1−As−Ab/Ac ×100 where As is the absorbance of the analyzed sample, Ab is the absorbance of the blank (immediate deactivation), and Ac is the absorbance of the control ([…]). Acarbose was used as the positive control.
# [2] = DPPH radical scavenging assay (antioxidant activity); conditions: for EC50: MES-NaOH buffer pH 6.0, 15 min in the dark; for Antioxidant Trolox-eq (TE): trolox-equivalent (mol-trolox/mol-sample) = slope of sample / slope of trolox
# Procedure: The antioxidant activity was assessed by employing the 2,2-diphenyl-1-picrylhydrazyl (DPPH) radical scavenging assay, according to the previously published method. In total, 100 μL of each sample (1000–10 μg/mL in 50%EtOH/ H2O ) or trolox (160–0 μM in 50% EtOH/ H2O ), and 50 μL of 2-(N-morpholino)ethanesulfonic acid (MES)-NaOH buffer (200 mM, pH = 6.0), and 50 μL of an 800 μM DPPH diluted in 99.5% EtOH were mixed in 96-well plates. Following shaking the microplate for 15 min in the dark, the absorbance was recorded at 520 nm using a microplate reader (Bio-Rad, Model 680). Effective percentages (%) were calculated as follows: Effective percentages (%) = 1−As/Ab ×100 where As is the absorbance of the sample and Ab is the absorbance of the blank (without samples, 50% EtOH/ H2O solution was used instead).
# The trolox-equivalent (sample-mol/trolox-mol) was calculated as follows: Trolox−equivalent (mol−trolox/mol−sample) = Ss/St where Ss is the slope of the sample and St is the slope of trolox.
# rat α-glucosidase = assay: α-glucosidase inhibitory activity assay (FUJIFILM kit, maltose substrate, glucose measured by mutarotase-GOD method); type: biochemical; conditions: rat α-glucosidase, 18.5 mM maltose, maleic anhydride buffer pH 6.0, 37 °C, 30 min; mean ± S.D. of n = 2
# Procedure: as §1
solubility in water (no α-glucosidase IC50 obtained) [1],EC50 ([2]; mean ± S.D. of n = 3) [µM],IC50 (rat α-glucosidase) [µM],Compound,antioxidant activity (in words) [2],Antioxidant Trolox-eq (TE) ([2]; mean ± S.D. of n = 3),"Antioxidant Trolox-eq (TE) ([2]; mean ± S.D. of n = 3, listed as tellimagrandin I)"
−^d,> 78,,"O=C(OC[C@H]1OC[C@H](OC(=O)c2cccc(O)c2)[C@@H](OC(=O)c2cccc(O)c2)[C@@H]1OC(=O)c1cccc(O)c1)c1cccc(O)c1 [Compound 57, 1,5-Anhydro-2,3,4,6-tetrakis-O-(3-hydroxybenzoyl)-D-glucitol]",no antioxidant activity was observed,,
−^d,> 78,,"O=C(OC[C@H]1OC[C@H](OC(=O)c2ccc(O)cc2)[C@@H](OC(=O)c2ccc(O)cc2)[C@@H]1OC(=O)c1ccc(O)cc1)c1ccc(O)cc1 [Compound 58, 1,5-Anhydro-2,3,4,6-tetrakis-O-(4-hydroxybenzoyl)-D-glucitol]",no antioxidant activity was observed,,
,6.31 ± 0.27,3.37 ± 0.04,Tellimagrandin I [reference compound],,7.04 ± 0.37,7.04

# — article PMC6930660, “Synthesis and Comparative Structure–Activity Study of Carbohydrate-Based Phenolic Compounds as α-Glucosidase Inhibitors and Antioxidants” (Molecules, 2019)
